Consider 28 molecules from patent US8846694B2, “Pyrrolidone derivatives for use as MetAP-2 inhibitors” (Merck Patent GmbH, priority 2008, dated 2014).

Values after ≈ are worked out from the molar mass of the structure shown. Counter-ions that a name gives are not always drawn. Some results are limits rather than exact numbers.

As a reminder, the solubility is how much of the substance goes into solution per volume. Low values mean little dissolved substance, high ones much dissolved substance. One may read the IC50 as the concentration needed to halve the response being measured.

Test system in one series: not listed separately
The experiment in a line: Shake flask solubility measurement. Particulars: shake flask, buffer; shaken at 37° C. for 24 h. It is filed as physicochemical. As to the method: Determination by Shake Flask Solubility Measurement
• Eluent A: 2 ml of diethylamine, for synthesis+1000 ml of methanol, LiChrosolv • Eluent B: 5 g of ammonium acetate, for analysis+5 ml of methanol, LiChrosolv+995 ml of ultrapure water Sample Solvent:
Buffer: 3.954 g of sodium dihydrogenphosphate monohydrate+6.024 g of sodium chloride+950 ml of ultrapure water the pH is adjusted using 0.1 M NaOH or 0.1 M HCl.
The samples are shaken at 37° C. and 450 rpm for 24 h.
After about 7 h, the pH of the samples is checked and adjusted if necessary. It is also checked whether the sample is still present in excess.
Just before the end of the 24 h shaking time, the samples are again checked for pH and a precipitate.
For the molecule `Clc1cccc(OC[C@H]2CCCN2c2ncnc3[nH]cnc23)c1Cl` [6-[(R)-2-(2,3-dichlorophenoxymethyl)pyrrolidin-yl]-9H-purine, reference compound], the solubility was less than 1 µg/mL.

Staying with this series, now noted: sodium phosphate/sodium chloride buffer, aqueous buffer, thermodynamic from solid; shake flask, buffer; shaken at 37° C. for 24 h.
In turn, `O=C(O)/C=C1/CCc2c(OC[C@H]3CCCN3c3ncnc4[nH]cnc34)cccc2C1=O` [[1-oxo-5-[(R)-1-(9H-purin-6-yl)pyrrolidin-2-ylmethoxy]-3,4-dihydro-1H-naphthalen-(2Z)-ylidene]acetic acid] yielded a solubility at 24 h of more than 3800 µg/mL.
Still for that read-out and setting: the result for `CNC(=O)/C=C1/CCc2c(OC[C@H]3CCCN3c3ncnc4[nH]cnc34)cccc2C1=O` [N-methyl-2-[1-oxo-5-[(R)-1-(9H-purin-6-yl)pyrrolidin-2-ylmethoxy]-3,4-dihydro-1H-naphthalen-(2Z)-ylidene]acetamide] reads 29 µg/mL (≈ 67.1 µM); that for `O=C(c1ccc(CC[C@H]2CCCN2c2ncnc3[nH]cnc23)c2ccccc12)N1CCOCC1` [Morpholin-4-yl-(4-{2-[(S)-1-(9H-purin-6-yl)pyrrolidin-2-yl]ethyl}naphthalen-1-yl)-methanone], 108 µg/mL (≈ 237 µM).

The target of another series is MetAP-2 (Homo sapiens, UniProt P50579). As to the kind of experiment: MetAP-2 activity measurement (coupled enzymatic reactions, substrate Met-Arg-Ser, photometric at 450 nm). Particulars: read-out: IC50 enzyme (Inhibition of MetAP-2). Format: biochemical. The gist of the method: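 Human MetAP-2 cleaves Met-Arg-Ser; the freed methionine is oxidized by L-amino acid oxidase, and the resulting H2O2 drives peroxidase oxidation of dianisidine, read continuously at 450 nm. Activity is taken as the slope in the visually linear region.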
MetAP-2, sequence (P50579 whole entry, species assumed): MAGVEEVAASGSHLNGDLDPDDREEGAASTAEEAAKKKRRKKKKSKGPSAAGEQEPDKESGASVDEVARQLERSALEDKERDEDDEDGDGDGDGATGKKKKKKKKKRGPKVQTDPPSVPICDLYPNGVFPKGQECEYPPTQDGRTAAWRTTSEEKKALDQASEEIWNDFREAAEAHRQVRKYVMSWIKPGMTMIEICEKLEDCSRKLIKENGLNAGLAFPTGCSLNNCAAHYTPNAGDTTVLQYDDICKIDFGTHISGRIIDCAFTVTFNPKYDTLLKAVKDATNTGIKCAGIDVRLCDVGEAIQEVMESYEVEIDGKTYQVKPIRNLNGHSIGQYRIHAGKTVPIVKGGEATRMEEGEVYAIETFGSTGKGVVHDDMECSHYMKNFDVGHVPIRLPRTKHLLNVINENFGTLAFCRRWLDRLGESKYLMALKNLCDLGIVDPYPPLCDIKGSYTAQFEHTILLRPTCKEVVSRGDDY
On to `F[C@@H]1C[C@H](COc2ccccc2Cl)N(c2ncnc3[nH]cnc23)C1` [A27, 6-[(2R,4R)-2-(2-Chlorophenoxymethyl)-4-fluoro-pyrrolidin-1-yl]-9H-purine], for which the IC50 is more than 10000 nM.
Regarding `CCc1nc2c(N3CCC[C@@H]3COc3ccccc3Cl)ncnc2[nH]1` [A17, 6-[(R)-2-(2-Chlorophenoxymethyl)pyrrolidin-1-yl]-8-ethyl-9H-purine HCl], the half-inhibitory concentration (IC50) is more than 10000 nM.
Still for that read-out and setting: under `CNC(=O)CC1CCc2c(OC[C@H]3CCCN3c3ncnc4[nH]cnc34)cccc2C1=O` (stereo partly drawn) [A179, N-Methyl-2-{1-oxo-5-[(R)-1-(9H-purin-6-yl)-pyrrolidin-2-ylmethoxy]-1,2,3,4-tetrahydro-naphthalen-2-yl}acetamide] stands 10 to 1000 nM.
The same measure, in the same setting: under `c1cc(OC[C@H]2CCCN2c2ncnc3[nH]cnc23)c2cc[nH]c2c1` [A40, 6-[(R)-2-(1H-lndol-4-yloxymethyl)pyrrolidin-1-yl]-9H-purine] stands 1000 to 10000 nM; under `CC(=O)c1cc2cccc(OC[C@H]3CCCN3c3ncnc4[nH]cnc34)c2o1` [A41, 1-{7-[(R)-1-(9H-Purin-6-yl)pyrrolidin-2-yl-methoxy]benzofuran-2-yl}ethanone], 10 to 1000 nM; under `c1ccc2c(OC[C@H]3CCCN3c3ncnc4ncccc34)cccc2c1` [A23, 4-[(R)-2-(Naphthalen-1-yloxymethyl)pyrrolidin-1-yl]pyrido[2,3-d]pyrimidine], more than 10000 nM.
Same read-out and setting: the result for `O=C(O)/C=C/c1ccccc1OC[C@H]1CCCN1c1ncnc2[nH]cnc12` [A76, (E)-3-{2-[(R)-1-(9H-Purin-6-yl)pyrrolidin-2-yl-methoxy]phenyl}acrylic acid] reads more than 10000 nM.
Regarding `Brc1nc2c(N3CCC[C@@H]3COc3cccc4ccccc34)ncnc2[nH]1` [A18, 8-Bromo-6-[(R)-2-(naphthalen-1-yloxymethyl)-pyrrolidin-1-yl]-9H-purine], the IC50 was more than 10000 nM.
Same read-out and setting: under `CC(=O)N(Cc1ccn(C)n1)Cc1ccc(OC[C@H]2CCCN2c2ncnc3[nH]cnc23)c2ccccc12` [A99, N-(1-Methyl-1H-pyrazol-3-ylmethyl)-N-{4-[(R)-1-(9H-purin-6-yl)pyrrolidin-2-ylmethoxy]-naphthalen-1-ylmethyl}acetamide] stands 10 to 1000 nM; under `O=C(O)CCCCOc1ccc2cccc(OC[C@H]3CCCN3c3ncnc4[nH]cnc34)c2c1` [A196, 5-{8-[(R)-1-(9H-Purin-6-yl)pyrrolidin-2-yl-methoxy]naphthalen-2-yloxy}pentanoic acid], more than 10000 nM.
Still for that read-out and setting: under `C(=C\[C@H]1CCCN1c1ncnc2[nH]cnc12)/c1cccc2ccccc12` [A12, 6-[(R)-2((E)-2-naphthalen-1-ylvinyl)pyrrolidin-1-yl]-9H-purine] stands 1000 to 10000 nM; under `OC1CN(C2CCc3cccc(OC[C@H]4CCCN4c4ncnc5[nH]cnc45)c3C2)C1` (stereo partly drawn) [A170, 1-{8-[(R)-1-(9H-Purin-6-yl)pyrrolidin-2-yl-methoxy]-1,2,3,4-tetrahydronaphthalen-2-yl}azetidin-3-ol], 10 to 1000 nM.
On the same count and under the same terms, under `O=C(CC1CCc2c(OC[C@H]3CCCN3c3ncnc4[nH]cnc34)cccc2C1=O)NCCO` (stereo partly drawn) [A180, N-(2-Hydroxyethyl)-2-{1-oxo-5-[(R)-1-(9H-purin-6-yl)pyrrolidin-2-ylmethoxy]-1,2,3,4-tetrahydro-naphthalen-2-yl}acetamide] stands 10 to 1000 nM.
For `CC(C)(C)OC(=O)NCCCCCC(=O)N1CCc2cccc(OC[C@H]3CCCN3c3ncnc4[nH]cnc34)c2C1` [A133, tert-Butyl (6-oxo-6-{8-[(R)-1-(9H-purin-6-yl)-pyrrolidin-2-ylmethoxy]-3,4-dihydro-1H-isoquinolin-2-yl}hexyl)carbamate], the half-maximal inhibitory concentration (IC50) is 1000 to 10000 nM.
Turning to `FC(F)(F)Oc1ccc2nccc(OC[C@H]3CCCN3c3ncnc4[nH]cnc34)c2c1` [A137, 4-[(R)-1-(9H-Purin-6-yl)pyrrolidin-2-ylmethoxy]-6-trifluoromethoxyquinoline], the half-inhibitory concentration (IC50) fell in the range of 10 to 1000 nM.
On the same count and under the same terms, the result for `CCN(CC)C(=O)c1cc2cccc(OC[C@H]3CCCN3c3ncnc4[nH]cnc34)c2cc1O` [A127, N,N-Diethyl-3-hydroxy-5-[(R)-1-(9H-purin-6-yl)-pyrrolidin-2-ylmethoxy]naphthalene-2-carboxamide] reads 10 to 1000 nM.
The same measure, in the same setting: under `c1ccc2c(NCCN3CCOCC3)ncc(OC[C@H]3CCCN3c3ncnc4[nH]cnc34)c2c1` [A172, (2-Morpholin-4-ylethyl)-{4-[(R)-1-(9H-purin-6-yl)-pyrrolidin-2-ylmethoxy]isoquinolin-1-yl}amine] stands 1000 to 10000 nM; under `Cn1c(C(=O)NCc2ccc(F)cc2)c(OC[C@H]2CCCN2c2ncnc3[nH]cnc23)c2cc(F)ccc21` [A197, N-(4-Fluorobenzyl)-5-fluoro-1-methyl-3-[(R)-1-(9H-purin-6-yl)pyrrolidin-2-ylmethoxy]-1H-indole-2-carboxamide], more than 10000 nM; under `CC(=O)N1CCN(c2ccc3cccc(OC[C@H]4CCCN4c4ncnc5[nH]cnc45)c3c2)CC1` [A116, 1-(4-{8-[(R)-1-(9H-Purin-6-yl)pyrrolidin-2-yl-methoxy]naphthalen-2-yl}piperazin-1-yl)-ethanone], 10 to 1000 nM.
`O=C(O)CC[C@H](NC(=O)O)C(=O)Nc1ccc2cccc(OC[C@H]3CCCN3c3ncnc4[nH]cnc34)c2c1` [A183, (S)-4-Carboxyamino-4-{8-[(R)-1-(9H-purin-6-yl)-pyrrolidin-2-ylmethoxy]naphthalen-2-yl-carbamoyl}butyric acid]: the IC50 was more than 10000 nM.
As to `Cc1cc2c(OC[C@H]3CCCN3c3ncnc4[nH]cnc34)cccc2cn1` [A89, 3-Methyl-5-[(R)-1-(9H-purin-6-yl)pyrrolidin-2-yl-methoxy]isoquinoline], the 50% inhibitory concentration (IC50) lay within 10 to 1000 nM.
Regarding `[O-][n+]1c(C(F)(F)F)cc(OC[C@H]2CCCN2c2ncnc3[nH]cnc23)c2cc(F)ccc21` [A140, 6-Fluoro-4-[(R)-1-(9H-purin-6-yl)pyrrolidin-2-yl-methoxy]-2-trifluoromethylquinoline 1-oxide], the IC50 lay within 10 to 1000 nM.
Same read-out and setting: under `c1ccc2c(OC[C@H]3CCCN3c3ncnc4[nH]cnc34)nccc2c1` [A109, 1-[(R)-1-(9H-Purin-6-yl)pyrrolidin-2-yl-methoxy]isoquinoline] stands 10 to 1000 nM.
As to `c1cc(OC[C@H]2CCCN2c2ncnc3[nH]cnc23)c2cccnc2c1` [A86, 5-[(R)-1-(9H-Purin-6-yl)pyrrolidin-2-yl-methoxy]quinoline], the IC50 fell in the range of 10 to 1000 nM.
